# Source: patent US9051351B2, “Hepatocyte growth factor mimics as therapeutic agents” (Washington State University, priority 2011, dated 2015)
# “Also recorded” adds a separate entry of the source. Where a SMILES comes first, the peptide text is derived from it. [ ]: non-standard residue; d: D form. The star is where a group is joined. Hexanoyl = CCCCCC(=O)*; Ahx = NCCCCCC(=O)O
# What was measured:
# hippocampal neurons [1] = assay: Dendritic spine counts (spinogenesis) in mRFP-β-actin transfected dissociated hippocampal neurons; type: cell-based, rat
# hippocampal neurons [2] = assay: Spine head width in mRFP-β-actin transfected hippocampal neurons; type: cell-based, rat; conditions: 10^−12 M, 5 days
# Source text: Neurons were transfected with mRFP-β-actin on day in vitro 6 […] using LipofectAMINE™ 2000 (Invitrogen) according to the manufacturer's protocol. This protocol yielded the desired 3-5% transfection efficiency thus enabling the visualization of individual neurons. Higher efficiencies obscured the dendritic arbor of individual neurons. Expression of fluorescently tagged actin allowed clear visualization of dendritic spines, as dendritic spines are enriched in actin. On DIV7 the cells were treated with vehicle (H2O) or peptides (as described in the text) added to media. […] Slides were dried for at least 20 hours at 4° C. and fluorescent images were obtained with Slidebook 4.2 Digital Microscopy Software driving an Olympus IX81 inverted confocal microscope with a 60× oil immersion lens, NA 1.4 and resolution 0.280 μm Dendritic spine density was measured on primary and secondary dendrites at a distance of at least 150 μm from the soma. Five 50 μm long segments of dendrite from at least 10 neurons per data point were analyzed for each data point reported. […] Dendrite length was determined using the National Institutes of Health's Image J 1.41o program (NIH, Bethesda, Md.) and the neurite tracing program Neuron J (Meijering, Jacob et al. 2004) Spines were manually counted. […]
# [3] = Blood-brain barrier penetrability study; type: in vivo, rat; conditions: carotid infusion, 30 minutes
# Experimental: To evaluate the of ability dihexa to penetrate the BBB and accumulate in the brain rats were fitted with carotid cannulas and infused with 10 μCi of ^3H-dihexa and 2 μCi of ^14C inulin, a vascular space marker, in 100 μL of isotonic saline. Thirty minutes after infusion, brains were removed and dissected and blood samples taken. After solubilization, ^3H and ^14C were quantified by dual window scintillation counting to determine the amount of dihexa and inulin in brain and blood samples. The ratio of dihexa/inulin in blood was then used to account for any blood contamination in the various brain regions.
# human HGF = biological target: T1, human HGF (Homo sapiens, UniProt P14210); assay: HGF dimerization (PAGE, silver staining); type: biochemical; conditions: 30 minutes, heparin
# T1 construct: purchased R&D Systems (Minneapolis, Minn.)
# T1 sequence (P14210 32-728): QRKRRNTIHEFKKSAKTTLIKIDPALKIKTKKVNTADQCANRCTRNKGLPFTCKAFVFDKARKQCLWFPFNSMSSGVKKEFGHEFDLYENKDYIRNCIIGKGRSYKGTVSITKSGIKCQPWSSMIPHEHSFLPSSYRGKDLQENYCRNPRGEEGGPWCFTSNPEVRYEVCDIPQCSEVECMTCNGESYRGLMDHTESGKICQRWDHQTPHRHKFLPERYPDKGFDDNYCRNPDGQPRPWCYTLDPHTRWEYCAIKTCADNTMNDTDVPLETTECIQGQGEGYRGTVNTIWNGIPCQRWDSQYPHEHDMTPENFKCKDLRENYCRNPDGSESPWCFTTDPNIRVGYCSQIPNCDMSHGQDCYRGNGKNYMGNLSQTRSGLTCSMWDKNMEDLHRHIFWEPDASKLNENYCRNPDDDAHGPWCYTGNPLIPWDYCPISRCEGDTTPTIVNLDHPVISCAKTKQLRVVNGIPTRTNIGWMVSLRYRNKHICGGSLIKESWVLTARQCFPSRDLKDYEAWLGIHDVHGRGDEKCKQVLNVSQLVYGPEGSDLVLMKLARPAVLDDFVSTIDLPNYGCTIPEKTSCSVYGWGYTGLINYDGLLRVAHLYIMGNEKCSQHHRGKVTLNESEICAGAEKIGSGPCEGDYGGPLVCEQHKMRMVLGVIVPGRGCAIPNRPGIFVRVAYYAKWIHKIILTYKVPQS
# Experimental: HGF dimerization was assessed using PAGE followed by silver staining (Kawas et al., 2011). Human HGF at a concentration of 0.08 ng/μl with or without 6-AH analogs was incubated with heparin at a final concentration of 5 μg/ml. Loading buffer was then added to each sample and the mixture separated by native PAGE using gradient Criterion XT precast gels (4-12% Bis-Tris; Biorad Laboratories, Hercules, Calif.). Next the gel was silver stained for the detection of the HGF monomers and dimers. Bands were quantitated from digital images using a UVP phosphoimager (Upland, Calif.).
# aged rats = assay: Morris water maze, aged rat model; type: in vivo; conditions: aged rats of mixed sex, Dihexa oral 2 mg/kg/day, 8 days
# Experimental: Swim speed was determined from these values.
# The aged rat study employed 24 month old rats of mixed sex. […] The guide was then sealed with a thick stainless steel wire.
smiles,measurement,setting,value
"CCCCCC(=O)N[C@@H](Cc1ccc(O)cc1)C(=O)N[C@H](C(=O)NCCCCCC(N)=O)[C@@H](C)CC [Dihexa, N-hexanoic-Tyr-Ile-(6)-aminohexanoic amide] (Hexanoyl-Tyr-Ile-[Ahx]-NH2)",increase in the number of spines,"hippocampal neurons [1]; 10^−12 M, 5 day treatment, vs vehicle",~3 fold
same,mean spine numbers per 50 μm dendrite length,"hippocampal neurons [1]; 10^−12 M, acute 30 minute application on DIV12",23.9 spines per 50 μm dendrite leng
same,mean spine numbers per 50 μm dendrite length,"hippocampal neurons [1]; neurons transfected with mRFP-β-actin alone, HGF 10 ng/ml, Dihexa or Nle1-AngIV 10^−12 M, 48 hours",21.8 spines per 50 μm dendrite leng
same,mean spine numbers per 50 μm dendrite length,"hippocampal neurons [1]; neurons transfected with mRFP-β-actin and shMet (c-Met knock-down), HGF 10 ng/ml, Dihexa or Nle1-AngIV 10^−12 M",12.0 spines per 50 μm dendrite leng
same,spine head width,hippocampal neurons [2],0.80 μm
same,average 3H/14C for blood,[3],1687
same,concentration of 3H-dihexa in brain regions (3H/14C ratio vs blood),[3]; 14C-inulin vascular marker,all the brain regions examined avidly concentrated dihexa
same,HGF dimerization in the presence of Dihexa,human HGF,blocking HGF dimerization; also recorded: blocks HGF dimerization
same,latency to find the pedestal in the water maze,aged rats,preformed significantly better in the water maze than untreated rats; also recorded: performed significantly better than untreated controls
same,latency to find the pedestal in the water maze,aged rats; listed as dihexa,significantly improved performance; also recorded: significantly different than that of the non-treated rats
